The values that follow come from patent EP1801111A1, “Novel polymorph forms of olmesartan medoxomil” (LEK Pharmaceuticals d.d., priority 2005, dated 2007).

For data set [1] the following is noted: 1 n hcl.
A short description of data set [2]: Hygroscopicity: mass change after exposing to air moisture. It counts as physicochemical. Particulars: for increase of the mass of the sample: after exposing to air moisture for 6 days.

As to `CCCc1nc(C(C)(C)O)c(C(=O)OCc2oc(=O)oc2C)n1Cc1ccc(-c2ccccc2-c2nnn[nH]2)cc1` [partially crystalline or amorphous, olmesartan medoxomil], the “solubility in 1 N HCI” value in data set [1] is “up to 7 mg/ml”.

Take `CCCc1nc(C(C)(C)O)c(C(=O)OCc2oc(=O)oc2C)n1Cc1ccc(-c2ccccc2-c2nnn[nH]2)cc1` [olmesartan medoxomil hemihydrate]: the “increase of the mass of the sample” value in data set [2] (hemihydrate) is “did not increase”. Further, the “hygroscopicity (in words)” value in data set [2] (compared with the prior art substance) is given as “not hydroscopic”. For the same compound, the “solubility in 1 N HCI” value in data set [1] was “around 3 mg/ml”.

On to `CCCc1nc(C(C)(C)O)c(C(=O)OCc2oc(=O)oc2C)n1Cc1ccc(-c2ccccc2-c2nnn[nH]2)cc1` [prior art substance, olmesartan medoxomil], for which, in data set [2], the “increase of the mass of the sample” value is listed as 0,61%. Also, the “solubility in 1 N HCI” value in data set [1] was “approximately 2 mg”.
